Like-named read-outs stand apart in the source and are kept apart here.
Experiments:
[1] = tested on: HuCCT1 cell line; test: In vitro cell proliferation assay (MTT); format: cell-based; details: Homo sapiens, HuCCT-1, HuCCT1, 72 hr, read-out: EC50, anti-proliferative activity
Method in brief: (§1)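 Cancer cells were seeded at 5×10^3 per well and HRMEC at 1×10^4 per well, then exposed in duplicate to compound (10 nM to 3 μM) for 72 hr. Proliferation was read by MTT. EC50 came from sigmoidal dose-response fits normalized to DMSO (0%) and 1% SDS (100%) controls.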

[2] = tested on: HUVEC cells; test: In vitro cell proliferation assay (MTT); format: cell-based; details: Homo sapiens, 72 hr, read-out: EC50, anti-proliferative activity
Method in brief: as §1

[3] = tested on: HT29 cell line; test: In vitro cell proliferation assay (MTT); format: cell-based; details: Homo sapiens, HT-29, HT29, 72 hr, EC50 ≧ 1 μM, read-out: EC50, anti-proliferative activity
Method in brief: as §1

[4] = tested on: HepG2 cell line; test: In vitro cell proliferation assay (MTT); format: cell-based; details: Homo sapiens, HepG2, 72 hr, read-out: EC50, anti-proliferative activity
Method in brief: as §1

[5] = tested on: H1975 cell line; test: In vitro cell proliferation assay (MTT); format: cell-based; details: Homo sapiens, NCI-H1975, H1975, 72 hr, read-out: EC50, anti-proliferative activity
Method in brief: as §1

[6] = tested on: A549 cell line; test: In vitro cell proliferation assay (MTT); format: cell-based; details: Homo sapiens, A549, 72 h, read-out: EC50, anti-proliferative activity
Method in brief: as §1

[7] = tested on: HRMEC cells; test: In vitro cell proliferation assay (MTT); format: cell-based; details: 72 hr, read-out: EC50, anti-proliferative activity
Method in brief: as §1

[8] = biological target: T1, EGFR (ErbB1) T790M L858R (Homo sapiens, UniProt P00533, L858R/T790M); test: In vitro kinase assay (Z'-LYTE, Invitrogen); format: biochemical; details: compound at 100 nM, ATP Km apparent, read-out: % of inhibition of the kinase compared to the control
T1 construct: purchased Invitrogen
Method in brief: (§2)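 Z′-LYTE, coupled-enzyme FRET format; single dose 100 nM cpd, 1% DMSO. Buffer: 50 mM HEPES pH 7.5, 10 mM MgCl2, 1 mM EGTA, 0.01% BRIJ-35. ATP = apparent Km. Readout: donor/acceptor emission ratio, ex 400 nm → % inhibition.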

[9] = biological target: T2, KDR (VEGFR2) (Homo sapiens, UniProt P35968); test: In vitro kinase assay (Z'-LYTE, Invitrogen); format: biochemical; details: compound at 100 nM, ATP Km apparent, read-out: % of inhibition of the kinase compared to the control
T2 construct: purchased Invitrogen
Method in brief: as §2

[10] = biological target: T3, PDGFRA (PDGFR alpha) (Homo sapiens, UniProt P16234); test: In vitro kinase assay (Z'-LYTE, Invitrogen); format: biochemical; details: compound at 100 nM, ATP Km apparent, read-out: % of inhibition of the kinase compared to the control
T3 construct: purchased Invitrogen
Method in brief: as §2

[11] = biological target: T4, FGFR2 (Homo sapiens, UniProt P21802); test: In vitro kinase assay (Z'-LYTE, Invitrogen); format: biochemical; details: compound at 100 nM, ATP Km apparent, read-out: % of inhibition of the kinase compared to the control
T4 construct: purchased Invitrogen
Method in brief: as §2

[12] = biological target: T5, EGFR (ErbB1) (Homo sapiens, UniProt P00533); test: In vitro kinase assay (Z'-LYTE, Invitrogen); format: biochemical; details: compound at 100 nM, ATP Km apparent, read-out: % of inhibition of the kinase compared to the control
T5 construct: purchased Invitrogen
Method in brief: as §2

[13] = biological target: T6, SRC (Homo sapiens, UniProt P12931); test: In vitro kinase assay (Z'-LYTE, Invitrogen); format: biochemical; details: compound at 100 nM, ATP Km apparent, read-out: % of inhibition of the kinase compared to the control
T6 construct: purchased Invitrogen
Method in brief: as §2

[14] = biological target: T7, BRAF (Homo sapiens, UniProt P15056); test: In vitro kinase assay (Z'-LYTE, Invitrogen); format: biochemical; details: compound at 100 nM, ATP Km apparent, read-out: % of inhibition of the kinase compared to the control
T7 construct: purchased Invitrogen
Method in brief: as §2

[15] = tested on: HuH6 Clone 5 cell line; test: In vitro cell proliferation assay (MTT); format: cell-based; details: HUH-6-clone5, HuH6 Clone 5, 72 hr, read-out: EC50, anti-proliferative activity
Method in brief: as §1

[16] = tested on: MDA-MB-231 cell line; test: In vitro cell proliferation assay (MTT); format: cell-based; details: Homo sapiens, MDA-MB-231, 72 hr, read-out: EC50, anti-proliferative activity
Method in brief: as §1

[17] = tested on: HuH7 cell line; test: In vitro cell proliferation assay (MTT); format: cell-based; details: Homo sapiens, Huh-7, HuH7, 72 hr, read-out: EC50, anti-proliferative activity
Method in brief: as §1

[18] = tested on: HeLa cell line; test: In vitro cell proliferation assay (MTT); format: cell-based; details: Homo sapiens, 72 hr, 100 nM < EC50 < 1 μM, read-out: EC50, anti-proliferative activity
Method in brief: as §1

T5 sequence (P00533 25-1210): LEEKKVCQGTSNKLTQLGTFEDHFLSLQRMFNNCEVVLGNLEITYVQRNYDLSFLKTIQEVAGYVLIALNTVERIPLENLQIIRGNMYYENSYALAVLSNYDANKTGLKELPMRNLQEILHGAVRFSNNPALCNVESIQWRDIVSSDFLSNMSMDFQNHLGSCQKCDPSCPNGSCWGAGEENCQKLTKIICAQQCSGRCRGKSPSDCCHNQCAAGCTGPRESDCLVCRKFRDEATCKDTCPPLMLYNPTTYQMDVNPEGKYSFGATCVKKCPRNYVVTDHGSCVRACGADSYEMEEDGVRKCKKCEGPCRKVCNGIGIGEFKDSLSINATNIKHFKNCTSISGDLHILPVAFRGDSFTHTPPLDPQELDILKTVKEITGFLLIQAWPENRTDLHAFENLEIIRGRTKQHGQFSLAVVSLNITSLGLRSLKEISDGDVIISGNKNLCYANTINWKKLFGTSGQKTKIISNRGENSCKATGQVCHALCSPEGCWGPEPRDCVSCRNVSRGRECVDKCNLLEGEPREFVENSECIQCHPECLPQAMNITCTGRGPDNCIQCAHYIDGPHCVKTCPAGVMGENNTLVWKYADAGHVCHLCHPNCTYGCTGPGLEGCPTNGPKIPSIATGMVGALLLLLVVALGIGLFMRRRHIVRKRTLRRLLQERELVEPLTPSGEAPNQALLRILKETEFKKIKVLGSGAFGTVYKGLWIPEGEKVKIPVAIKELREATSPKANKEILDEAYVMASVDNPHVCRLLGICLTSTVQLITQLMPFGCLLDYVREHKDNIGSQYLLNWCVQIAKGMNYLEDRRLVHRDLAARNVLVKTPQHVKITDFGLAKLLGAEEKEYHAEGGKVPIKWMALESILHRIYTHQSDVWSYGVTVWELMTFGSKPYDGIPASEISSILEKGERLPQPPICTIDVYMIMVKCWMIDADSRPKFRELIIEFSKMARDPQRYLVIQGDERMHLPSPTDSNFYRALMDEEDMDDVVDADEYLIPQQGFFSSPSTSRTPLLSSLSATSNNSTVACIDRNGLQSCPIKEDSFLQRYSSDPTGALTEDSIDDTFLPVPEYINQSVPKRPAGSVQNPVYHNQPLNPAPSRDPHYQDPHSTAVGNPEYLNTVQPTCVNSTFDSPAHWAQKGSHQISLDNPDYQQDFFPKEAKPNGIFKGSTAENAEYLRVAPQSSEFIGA
T2 sequence (P35968 20-1356): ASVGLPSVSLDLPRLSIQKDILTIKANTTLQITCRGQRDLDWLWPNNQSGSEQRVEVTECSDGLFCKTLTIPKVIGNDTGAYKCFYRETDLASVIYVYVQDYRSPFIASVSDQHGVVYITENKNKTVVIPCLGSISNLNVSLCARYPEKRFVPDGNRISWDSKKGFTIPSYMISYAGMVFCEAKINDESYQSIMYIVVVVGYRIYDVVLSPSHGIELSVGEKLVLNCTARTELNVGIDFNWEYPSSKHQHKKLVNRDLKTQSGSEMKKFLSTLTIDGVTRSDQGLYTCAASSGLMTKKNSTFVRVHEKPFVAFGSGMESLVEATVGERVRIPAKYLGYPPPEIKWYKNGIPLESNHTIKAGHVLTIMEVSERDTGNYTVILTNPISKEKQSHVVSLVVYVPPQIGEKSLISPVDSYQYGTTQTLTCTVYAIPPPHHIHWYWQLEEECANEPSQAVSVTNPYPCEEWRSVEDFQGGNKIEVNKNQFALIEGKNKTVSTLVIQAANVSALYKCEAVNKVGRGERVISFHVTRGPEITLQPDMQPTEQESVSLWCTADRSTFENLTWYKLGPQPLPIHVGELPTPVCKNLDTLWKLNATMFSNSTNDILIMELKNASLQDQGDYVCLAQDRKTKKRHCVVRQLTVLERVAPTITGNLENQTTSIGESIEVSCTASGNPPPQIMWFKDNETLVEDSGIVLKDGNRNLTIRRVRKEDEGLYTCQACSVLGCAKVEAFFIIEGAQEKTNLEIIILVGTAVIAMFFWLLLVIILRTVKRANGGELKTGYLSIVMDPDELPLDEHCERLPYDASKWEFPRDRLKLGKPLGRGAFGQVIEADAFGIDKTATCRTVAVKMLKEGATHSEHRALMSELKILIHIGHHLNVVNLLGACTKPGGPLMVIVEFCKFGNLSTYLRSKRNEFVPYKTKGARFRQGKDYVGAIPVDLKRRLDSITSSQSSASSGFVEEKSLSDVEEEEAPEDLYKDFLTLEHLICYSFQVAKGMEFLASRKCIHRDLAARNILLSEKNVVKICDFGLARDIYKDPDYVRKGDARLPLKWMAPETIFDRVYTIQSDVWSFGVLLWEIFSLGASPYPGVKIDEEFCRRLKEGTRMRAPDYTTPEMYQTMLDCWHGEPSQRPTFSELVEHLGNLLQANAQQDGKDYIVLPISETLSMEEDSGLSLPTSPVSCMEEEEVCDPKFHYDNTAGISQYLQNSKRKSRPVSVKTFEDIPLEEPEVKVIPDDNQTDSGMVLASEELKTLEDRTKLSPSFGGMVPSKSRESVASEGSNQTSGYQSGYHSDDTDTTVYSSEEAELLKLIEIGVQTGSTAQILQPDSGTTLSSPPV
T4 sequence (P21802 22-821): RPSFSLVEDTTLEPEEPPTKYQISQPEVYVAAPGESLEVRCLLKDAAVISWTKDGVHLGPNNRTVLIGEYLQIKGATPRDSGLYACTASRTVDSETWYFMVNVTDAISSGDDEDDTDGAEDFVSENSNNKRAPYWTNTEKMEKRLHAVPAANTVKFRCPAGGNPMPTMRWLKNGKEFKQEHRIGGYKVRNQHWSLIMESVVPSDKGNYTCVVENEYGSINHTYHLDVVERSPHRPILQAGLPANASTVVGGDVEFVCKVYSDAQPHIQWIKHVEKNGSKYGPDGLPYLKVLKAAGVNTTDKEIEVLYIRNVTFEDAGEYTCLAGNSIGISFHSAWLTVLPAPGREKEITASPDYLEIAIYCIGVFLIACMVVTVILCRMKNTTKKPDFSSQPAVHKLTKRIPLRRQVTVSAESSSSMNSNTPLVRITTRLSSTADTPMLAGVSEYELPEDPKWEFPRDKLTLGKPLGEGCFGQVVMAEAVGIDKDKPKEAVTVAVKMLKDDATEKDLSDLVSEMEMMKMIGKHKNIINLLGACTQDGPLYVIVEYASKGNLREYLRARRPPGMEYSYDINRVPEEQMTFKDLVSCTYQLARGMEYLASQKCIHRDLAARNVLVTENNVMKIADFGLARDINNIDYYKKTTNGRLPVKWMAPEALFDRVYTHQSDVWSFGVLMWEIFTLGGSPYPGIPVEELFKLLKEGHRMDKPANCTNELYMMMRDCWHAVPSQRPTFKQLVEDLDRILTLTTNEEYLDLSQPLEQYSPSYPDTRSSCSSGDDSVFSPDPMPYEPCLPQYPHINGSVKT
T3 sequence (P16234 24-1089): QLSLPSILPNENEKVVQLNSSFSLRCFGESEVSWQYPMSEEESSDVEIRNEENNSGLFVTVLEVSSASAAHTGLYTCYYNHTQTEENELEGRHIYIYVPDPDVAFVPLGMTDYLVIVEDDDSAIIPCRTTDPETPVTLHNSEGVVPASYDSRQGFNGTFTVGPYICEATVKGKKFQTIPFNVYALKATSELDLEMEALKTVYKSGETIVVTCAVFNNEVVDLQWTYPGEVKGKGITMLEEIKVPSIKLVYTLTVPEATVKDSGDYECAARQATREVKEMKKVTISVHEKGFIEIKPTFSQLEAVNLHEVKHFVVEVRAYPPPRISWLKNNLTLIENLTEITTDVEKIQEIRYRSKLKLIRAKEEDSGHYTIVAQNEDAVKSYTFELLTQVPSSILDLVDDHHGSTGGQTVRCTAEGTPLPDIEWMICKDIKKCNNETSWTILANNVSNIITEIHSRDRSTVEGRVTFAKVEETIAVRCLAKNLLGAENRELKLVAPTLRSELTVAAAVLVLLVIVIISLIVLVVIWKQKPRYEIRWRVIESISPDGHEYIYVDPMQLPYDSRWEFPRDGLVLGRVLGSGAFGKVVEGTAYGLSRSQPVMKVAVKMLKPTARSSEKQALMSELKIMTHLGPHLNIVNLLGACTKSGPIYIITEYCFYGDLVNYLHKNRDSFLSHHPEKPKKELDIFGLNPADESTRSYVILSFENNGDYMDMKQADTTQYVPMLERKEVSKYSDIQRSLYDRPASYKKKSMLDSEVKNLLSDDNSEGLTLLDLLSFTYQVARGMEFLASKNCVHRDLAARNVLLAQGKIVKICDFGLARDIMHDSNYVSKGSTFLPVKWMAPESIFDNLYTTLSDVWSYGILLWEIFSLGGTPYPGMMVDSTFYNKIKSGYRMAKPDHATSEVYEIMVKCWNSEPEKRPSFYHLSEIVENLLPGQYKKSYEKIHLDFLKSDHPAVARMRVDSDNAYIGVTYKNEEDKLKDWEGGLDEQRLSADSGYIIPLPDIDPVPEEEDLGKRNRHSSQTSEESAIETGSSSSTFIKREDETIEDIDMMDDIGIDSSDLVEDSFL
T6 sequence (P12931 whole entry): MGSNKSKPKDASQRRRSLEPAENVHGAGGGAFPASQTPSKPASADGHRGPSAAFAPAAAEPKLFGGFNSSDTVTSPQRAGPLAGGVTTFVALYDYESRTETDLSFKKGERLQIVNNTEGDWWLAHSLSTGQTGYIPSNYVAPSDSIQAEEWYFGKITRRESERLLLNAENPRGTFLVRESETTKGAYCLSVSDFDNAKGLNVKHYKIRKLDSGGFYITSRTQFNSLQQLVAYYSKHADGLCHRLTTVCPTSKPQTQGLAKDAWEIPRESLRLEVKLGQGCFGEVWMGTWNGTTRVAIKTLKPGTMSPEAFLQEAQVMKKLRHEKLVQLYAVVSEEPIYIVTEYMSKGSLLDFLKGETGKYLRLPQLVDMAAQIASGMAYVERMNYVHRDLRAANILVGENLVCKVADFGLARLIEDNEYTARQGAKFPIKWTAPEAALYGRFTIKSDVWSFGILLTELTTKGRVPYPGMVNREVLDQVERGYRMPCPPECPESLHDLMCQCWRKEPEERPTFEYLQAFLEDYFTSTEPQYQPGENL

EC50 [3] [nM] | EC50 ([5]; EC50 ≧ 1 μM) [nM] | inhibition at 0.1 µM [8] [%] | inhibition at 0.1 µM [9] [%] | inhibition at 0.1 µM [10] [%] | inhibition at 0.1 µM [11] [%] | inhibition at 0.1 µM [12] [%] | inhibition at 0.1 µM [13] [%] | inhibition at 0.1 µM [14] [%] | EC50 ([4]; 100 nM < EC50 < 1 μM) [nM] | EC50 ([17]; 100 nM < EC50 < 1 μM) [nM] | EC50 [18] [nM] | EC50 ([6]; EC50 ≦ 100 nM) [nM] | Compound | EC50 ([1]; EC50 ≧ 1 μM) [nM] | EC50 ([7]; EC50 ≧ 1 μM) [nM] | EC50 ([2]; EC50 ≦ 100 nM) [nM] | further results
≥ 1000 | ≥ 1000 | < 50 | < 50 | ≥ 50 | < 50 | ≥ 50 | < 50 | < 50 | – | – | – | – | COC(=O)c1cc2cc(CNc3cc(NC(=O)c4ccc(CN5CCN(C)CC5)cc4)ccc3C)cnc2[nH]1 [OR0746, 5-({2-Methyl-5-[4-(4-methyl-piperazin-1-ylmethyl)-benzoylamino]-phenylamino}-methyl)-1H-pyrrolo[2,3-b]pyridine-2-carboxylic acid methyl ester] | ≥ 1000 | ≥ 1000 | – | EC50 ([2]; EC50 ≧ 1 μM): ≥ 1000 nM; EC50 ([4]; EC50 ≧ 1 μM): ≥ 1000 nM; EC50 ([6]; EC50 ≧ 1 μM): ≥ 1000 nM
– | – | – | ≥ 50 | ≥ 50 | < 50 | < 50 | < 50 | < 50 | – | – | – | – | COC(=O)c1cc2cc(C=Cc3cc(NC(=O)c4ccc(CN5CCN(C)CC5)cc4)ccc3C)cnc2[nH]1 [OR0776, 5-(-2-{2-Methyl-5-[4-(4-methyl-piperazin-1-ylmethyl)-benzoylamino]-phenyl}-vinyl)-1H-pyrrolo[2,3-b]pyridine-2-carboxylic acid methyl ester] | – | ≥ 1000 | – | –
– | – | – | ≥ 50 | ≥ 50 | ≥ 50 | ≥ 50 | ≥ 50 | ≥ 50 | 100 to 1000 | 100 to 1000 | 100 to 1000 | ≤ 100 | CC(=O)c1cc2cc(CCc3cc(NC(=O)c4ccc(CN5CCC(N(C)C)C5)c(C(F)(F)F)c4)ccc3C)cnc2[nH]1 (centres unmarked) [OR0798, N-{3-[2-(2-Acetyl-1H-pyrrolo[2,3-b]pyridin-5-yl)-ethyl]-4-methyl-phenyl}-4-(3-dimethylamino-pyrrolidin-1-ylmethyl)-3-trifluoromethyl-benzamide] | ≥ 1000 | – | ≤ 100 | EC50 ([15]; 100 nM < EC50 < 1 μM): 100 to 1000 nM; EC50 ([16]; 100 nM < EC50 < 1 μM): 100 to 1000 nM; EC50 ([7]; 100 nM < EC50 < 1 μM): 100 to 1000 nM
≥ 1000 | – | ≥ 50 | ≥ 50 | ≥ 50 | ≥ 50 | ≥ 50 | ≥ 50 | ≥ 50 | 100 to 1000 | 100 to 1000 | 100 to 1000 | ≤ 100 | COC(=O)c1cc2cc(CCc3cc(NC(=O)c4ccc(CN5CCN(C)CC5)c(C(F)(F)F)c4)ccc3C)cnc2[nH]1 [OR0748, 5-(2-{2-Methyl-5-[4-(4-methyl-piperazin-1-ylmethyl)-3-trifluoromethyl-benzoylamino]-phenyl}-ethyl)-1H-pyrrolo[2,3-b]pyridine-2-carboxylic acid methyl ester] | – | – | ≤ 100 | EC50 ([1]; 100 nM < EC50 < 1 μM): 100 to 1000 nM; EC50 ([15]; EC50 ≧ 1 μM): ≥ 1000 nM; EC50 ([16]; EC50 ≦ 100 nM): ≤ 100 nM; EC50 ([5]; 100 nM < EC50 < 1 μM): 100 to 1000 nM; EC50 ([6]; 100 nM < EC50 < 1 μM): 100 to 1000 nM
≥ 1000 | ≥ 1000 | < 50 | ≥ 50 | ≥ 50 | < 50 | ≥ 50 | ≥ 50 | < 50 | – | – | – | – | COC(=O)c1cc2cc(COc3cc(NC(=O)c4ccc(CN5CCN(C)CC5)cc4)ccc3C)cnc2[nH]1 [OR0779, 5-{2-Methyl-5-[4-(4-methyl-piperazin-1-ylmethyl)-benzoylamino]-phenoxymethyl}-1H-pyrrolo[2,3-b]pyridine-2-carboxylic acid methyl ester] | ≥ 1000 | ≥ 1000 | – | EC50 ([2]; EC50 ≧ 1 μM): ≥ 1000 nM; EC50 ([4]; EC50 ≧ 1 μM): ≥ 1000 nM; EC50 ([6]; EC50 ≧ 1 μM): ≥ 1000 nM
≥ 1000 | ≥ 1000 | – | ≥ 50 | ≥ 50 | ≥ 50 | ≥ 50 | ≥ 50 | ≥ 50 | 100 to 1000 | 100 to 1000 | 100 to 1000 | ≤ 100 | CC(=O)c1cc2cc(CCc3cc(NC(=O)c4ccc(CN5CC[C@H](N(C)C)C5)c(C(F)(F)F)c4)ccc3C)cnc2[nH]1 [OR0812, N-{3-[2-(2-Acetyl-1H-pyrrolo[2,3-b]pyridin-5-yl)-ethyl]-4-methyl-phenyl}-4-((S)-3-dimethylamino-pyrrolidin-1-ylmethyl)-3-trifluoromethyl-benzamide] | – | – | – | EC50 ([16]; 100 nM < EC50 < 1 μM): 100 to 1000 nM; EC50 ([2]; 100 nM < EC50 < 1 μM): 100 to 1000 nM; EC50 ([7]; 100 nM < EC50 < 1 μM): 100 to 1000 nM
– | – | – | ≥ 50 | ≥ 50 | ≥ 50 | ≥ 50 | ≥ 50 | ≥ 50 | 100 to 1000 | – | 100 to 1000 | ≤ 100 | CC(=O)c1cc2cc(CCc3cc(NC(=O)c4ccc(CN5CCN(C)CC5)c(C(F)(F)F)c4)ccc3C)cnc2[nH]1 [OR0797, N-{3-[2-(2-Acetyl-1H-pyrrolo[2,3-b]pyridin-5-yl)-ethyl]-4-methyl-phenyl}-4-(4-methyl-piperazin-1-ylmethyl)-3-trifluoromethyl-benzamide] | ≥ 1000 | – | ≤ 100 | EC50 ([15]; 100 nM < EC50 < 1 μM): 100 to 1000 nM; EC50 ([16]; EC50 ≦ 100 nM): ≤ 100 nM; EC50 ([17]; EC50 ≦ 100 nM): ≤ 100 nM; EC50 ([7]; EC50 ≦ 100 nM): ≤ 100 nM

— patent US9550772B2, “Azaindole derivatives as multi kinase inhibitors” (ORIBASE PHARMA, priority 2012, dated 2017)
